pKd: −log10 of the molar value. Peptide text beside a SMILES is read from it.
Tests used:
Experiment in all cases: Fluorescence polarization SH3 domain-PRP binding
Conditions in all cases: FP, 0.2 µM fluorescein-labeled peptide, SH3 domain 0-200 µM, Tris/HCl pH 7.5, 25 °C, quadratic fit
[1] = molecular target: T1, SH3GLB1 SH3 domain (aa 305-365) (Homo sapiens, UniProt Q9Y371)
T1 construct: 305-365; GST (N); made in house; host or cells: Escherichia coli CodonPlus, Rosetta, BL21(DE3)
T1 sequence (Q9Y371 305-365): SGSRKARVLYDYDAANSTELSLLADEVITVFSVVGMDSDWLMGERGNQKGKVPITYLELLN
Method: (§1) The interaction between fluorescein-labeled proline-rich peptides (0.2 µM) and increasing concentrations of SH3 domains (ranging from 0 to 200 µM) was measured in a buffer (containing 30 mM Tris/HCl (pH 7.5), 5 mM MgCl2, and 3 mM DTT at 25 °C) in a total volume of 200 µL using a Fluoromax 4 fluorimeter in polarization mode and a quartz glass fluorescence cuvette (Hellma Ultra-Micro Cuvette 105.250-QS, Thermo Fisher Scientific, Waltham, MA USA). Excitation was performed at 470 nm and emission was measured at 560 nm. Dissociation constants (Kd) were determined by fitting the concentration-dependent binding curve to a quadratic ligand binding equation.
(§2) Fluorescence polarization measurements were performed to determine the binding affinities of SH3 domain–PRP interaction pairs from the dot blot analysis. SH3 proteins were titrated at increasing concentrations against fluorescent PRPs, which were kept at a constant concentration of 0.2 µM. GRB2-2^W193K, which is defective in the binding of PRPs such as RP1, was used as a negative control as previously described. […] The resulting data (Figure S6) allowed the evaluation of equilibrium dissociation constants (Kd) for 45 interactions between the SH3 domains and the PRPs (Figure 2B; Table S6).
(§3) Figure S6. Interactions of the SH3 domains with fluorescent PRPs measured by fluorescence polarization.
(§4) Fluorescent peptides (0.2 µM) were titrated with increasing concentrations of the corresponding SH3 domains.
(§5) GRB2-2W193K, defective in the binding of PRPs such as RP1, was used as a negative control as previously described. The x-axis represents SH3 domain concentrations as GST fusion proteins in µM, while the y-axis represents fluorescence polarization. The equilibrium dissociation constants (Kd) for the respective measurements were determined by fitting the titration curves to a quadratic ligand-binding equation (solid lines). All Kd values are […]
(§6) Error bars are derived from the fitting errors.

[2] = molecular target: T2, ITSN1-3 SH3 domain (aa 1002-1060) (Homo sapiens, UniProt Q15811)
T2 construct: 1002-1060; GST (N); made in house; host or cells: Escherichia coli CodonPlus, Rosetta, BL21(DE3)
T2 sequence (Q15811 1002-1060): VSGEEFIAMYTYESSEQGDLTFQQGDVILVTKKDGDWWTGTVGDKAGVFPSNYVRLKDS
Method: as §1, §2, §3, §4, §5, §6
(§7) (1 picture or pasted object on this page, not shown here)

[3] = molecular target: T3, ITSN1-2 SH3 domain (aa 913-971) (Homo sapiens, UniProt Q15811)
T3 construct: 913-971; GST (N); made in house; host or cells: Escherichia coli CodonPlus, Rosetta, BL21(DE3)
T3 sequence (Q15811 913-971): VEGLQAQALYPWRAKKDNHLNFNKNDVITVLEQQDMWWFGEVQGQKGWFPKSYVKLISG
Method: as §1, §2, §3, §4, §5, §6, §7

[4] = molecular target: T4, ABI1 SH3 domain (aa 446-505) (Homo sapiens, UniProt Q8IZP0)
T4 construct: 446-505; GST (N); made in house; host or cells: Escherichia coli CodonPlus, Rosetta, BL21(DE3)
T4 sequence (Q8IZP0 446-505): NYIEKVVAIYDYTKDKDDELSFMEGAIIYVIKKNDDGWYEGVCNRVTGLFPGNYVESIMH
Method: as §1, §2, §3, §4, §5, §6, §7

[5] = molecular target: T5, ARHGAP12 SH3 domain (aa 12-74) (Homo sapiens, UniProt Q8IWW6)
T5 construct: 12-74; GST (N); made in house; host or cells: Escherichia coli CodonPlus, Rosetta, BL21(DE3)
T5 sequence (Q8IWW6 12-74): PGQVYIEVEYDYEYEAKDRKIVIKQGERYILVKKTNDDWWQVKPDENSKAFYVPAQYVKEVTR
Method: as §1, §2, §3, §4, §5, §6, §7

[6] = molecular target: T6, GRB2-1 SH3 domain (aa 1-58) (Homo sapiens, UniProt P62993)
T6 construct: 1-58; GST (N); made in house; host or cells: Escherichia coli CodonPlus, Rosetta, BL21(DE3)
T6 sequence (P62993 1-58): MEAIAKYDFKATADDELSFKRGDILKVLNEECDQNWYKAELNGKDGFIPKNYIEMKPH
Method: as §1, §2, §3, §4, §5, §6, §7

[7] = molecular target: T7, ABL2 SH3 domain (aa 107-167) (Homo sapiens, UniProt P42684)
T7 construct: 107-167; GST (N); made in house; host or cells: Escherichia coli CodonPlus, Rosetta, BL21(DE3)
T7 sequence (P42684 107-167): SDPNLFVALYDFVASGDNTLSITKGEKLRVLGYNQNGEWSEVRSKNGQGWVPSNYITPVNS
Method: as §1, §2, §3, §4, §5, §6, §7

[8] = molecular target: T8, GRB2-2 SH3 domain (aa 158-215) (Homo sapiens, UniProt P62993)
T8 construct: 158-215; GST (N); made in house; host or cells: Escherichia coli CodonPlus, Rosetta, BL21(DE3)
T8 sequence (P62993 158-215): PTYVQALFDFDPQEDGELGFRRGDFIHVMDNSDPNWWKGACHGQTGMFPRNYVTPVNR
Method: as §1, §2, §3, §4, §5, §6, §7

[9] = molecular target: T9, ITSN1-1 SH3 domain (aa 740-806) (Homo sapiens, UniProt Q15811)
T9 construct: 740-806; GST (N); made in house; host or cells: Escherichia coli CodonPlus, Rosetta, BL21(DE3)
T9 sequence (Q15811 740-806): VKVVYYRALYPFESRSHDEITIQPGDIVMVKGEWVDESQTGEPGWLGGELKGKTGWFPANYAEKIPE
Method: as §1, §2, §3, §4, §5, §6, §7

[10] = molecular target: T10, ARHGEF30 (OBSCN) SH3 domain (aa 5600-5667) (Homo sapiens, UniProt Q5VST9)
T10 construct: 5600-5667; GST (N); made in house; host or cells: Escherichia coli CodonPlus, Rosetta, BL21(DE3)
T10 sequence (Q5VST9 5600-5667): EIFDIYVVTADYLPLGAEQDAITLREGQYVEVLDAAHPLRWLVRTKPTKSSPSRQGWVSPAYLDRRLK
Method: as §1, §2, §3, §4, §5, §6, §7

[11] = molecular target: T11, BIN1 SH3 domain (aa 520-593) (Homo sapiens, UniProt O00499)
T11 construct: 520-593; GST (N); made in house; host or cells: Escherichia coli CodonPlus, Rosetta, BL21(DE3)
T11 sequence (O00499 520-593): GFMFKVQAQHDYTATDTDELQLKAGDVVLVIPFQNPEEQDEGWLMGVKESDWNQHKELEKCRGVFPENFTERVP
Method: as §1, §2, §3, §4, §5, §6, §7

[12] = molecular target: T12, CRK-1 SH3 domain (aa 132-192) (Homo sapiens, UniProt P46108)
T12 construct: 132-192; GST (N); made in house; host or cells: Escherichia coli CodonPlus, Rosetta, BL21(DE3)
T12 sequence (P46108 132-192): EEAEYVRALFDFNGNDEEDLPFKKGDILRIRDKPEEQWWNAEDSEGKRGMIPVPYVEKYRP
Method: as §1, §2, §3, §4, §5, §6, §7

pKd [1]	pKd [2]	pKd [3]	pKd [4]	pKd [5]	pKd [6]	pKd [7]	pKd [8]	pKd [9]	pKd [10]	pKd [11]	pKd [12]	SMILES
< 3.70	< 3.70	< 3.70	< 3.70	< 3.70	< 3.70	< 3.70	< 3.70	< 3.70	< 3.70	< 3.70	< 3.70	CC(C)C[C@H](NC(=O)[C@@H]1CCCN1C(=O)[C@@H](NC(=O)[C@H](CCCNC(=N)N)NC(=O)[C@@H]1CCCN1C(=O)[C@H](CO)NC(=O)[C@H](CC(N)=O)NC(=O)[C@@H]1CCCN1C(=O)[C@H](C)NC(=O)[C@@H](N)CO)[C@@H](C)O)C(=O)N[C@H](C(=O)N1CCC[C@H]1C(=O)N1CCC[C@H]1C(=O)N1CCC[C@H]1C(=O)N[C@@H](C)C(=O)N[C@@H](CO)C(=O)O)[C@@H](C)O [Peptide P1] (H-SAPNSPRTPLTPPPAS-OH)
< 3.70	< 3.70	< 3.70	4.22	< 3.70	< 3.70	< 3.70	< 3.70	< 3.70	< 3.70	< 3.70	< 3.70	CC(C)C[C@H](NC(=O)[C@@H](NC(=O)[C@@H](N)C(C)C)[C@@H](C)O)C(=O)N1CCC[C@H]1C(=O)N[C@@H](Cc1c[nH]cn1)C(=O)NCC(=O)N1CCC[C@H]1C(=O)N[C@@H](CCCNC(=N)N)C(=O)N[C@@H](CO)C(=O)N[C@@H](C)C(=O)O [Peptide P2] (H-VTLPHGPRSA-OH)
< 3.70	< 3.70	< 3.70	< 3.70	4.86	4.82	< 3.70	4.92	< 3.70	< 3.70	< 3.70	4.89	CC[C@H](C)[C@H](NC(=O)[C@H](CCCCN)NC(=O)[C@H](CO)NC(=O)[C@@H]1CCCN1C(=O)[C@H](CO)NC(=O)[C@H](CO)NC(=O)[C@H](CCC(=O)O)NC(=O)[C@H](C)NC(=O)[C@@H]1CCCN1C(=O)[C@H](C)NC(=O)[C@H](CO)NC(=O)[C@H](CCC(=O)O)NC(=O)[C@@H]1CCCN1C(=O)[C@H](CCCNC(=N)N)NC(=O)[C@H](CCCNC(=N)N)NC(=O)[C@H](CCCNC(=N)N)NC(=O)[C@@H]1CCCN1C(=O)[C@@H]1CCCN1C(=O)[C@@H](NC(=O)[C@@H]1CCCN1C(=O)[C@@H]1CCCN1C(=O)[C@@H]1CCCN1C(=O)[C@@H](NC(=O)[C@@H]1CCCN1C(=O)[C@@H](NC(=O)[C@@H](N)CCC(=O)O)C(C)C)C(C)C)C(C)C)C(=O)O [Peptide P3] (H-EVPVPPPVPPRRRPESAPAESSPSKI-OH)
< 3.70	< 3.70	< 3.70	4.61	< 3.70	4.22	3.90	4.70	5.18	< 3.70	< 3.70	< 3.70	CC[C@H](C)[C@H](NC(=O)[C@H](C)NC(=O)[C@@H]1CCCN1C(=O)[C@@H]1CCCN1C(=O)[C@H](CO)NC(=O)[C@H](CC(=O)O)NC(=O)[C@@H](N)CC(C)C)C(=O)N1CCC[C@H]1C(=O)N1CCC[C@H]1C(=O)N[C@@H](CCCNC(=N)N)C(=O)N[C@@H](CCC(N)=O)C(=O)N1CCC[C@H]1C(=O)N[C@H](C(=O)N[C@@H](CO)C(=O)N[C@@H](CCCCN)C(=O)O)[C@@H](C)O [Peptide P4] (H-LDSPPAIPPRQPTSK-OH)
< 3.70	< 3.70	< 3.70	< 3.70	< 3.70	4.21	< 3.70	4.46	< 3.70	< 3.70	< 3.70	< 3.70	CC[C@H](C)[C@H](N)C(=O)N[C@@H](CO)C(=O)N[C@@H](CC(=O)O)C(=O)N1CCC[C@H]1C(=O)N1CCC[C@H]1C(=O)N[C@@H](CCC(=O)O)C(=O)N[C@@H](CO)C(=O)N1CCC[C@H]1C(=O)N1CCC[C@H]1C(=O)N[C@@H](CC(C)C)C(=O)N[C@@H](CC(C)C)C(=O)N1CCC[C@H]1C(=O)N1CCC[C@H]1C(=O)N[C@@H](CCCNC(=N)N)C(=O)N[C@@H](CCC(=O)O)C(=O)N1CCC[C@H]1C(=O)N[C@H](C(=O)N[C@@H](CCCNC(=N)N)C(=O)N[C@H](C(=O)N1CCC[C@H]1C(=O)N[C@@H](CC(=O)O)C(=O)N[C@H](C(=O)O)C(C)C)[C@@H](C)O)C(C)C [Peptide P5] (H-ISDPPESPPLLPPREPVRTPDV-OH)
< 3.70	< 3.70	< 3.70	< 3.70	< 3.70	< 3.70	< 3.70	< 3.70	< 3.70	< 3.70	< 3.70	< 3.70	CC(C)C[C@H](NC(=O)[C@H](Cc1c[nH]cn1)NC(=O)[C@H](CC(C)C)NC(=O)[C@@H]1CCCN1C(=O)[C@H](CO)NC(=O)[C@H](CO)NC(=O)[C@@H](N)CO)C(=O)N[C@@H](CCC(N)=O)C(=O)N1CCC[C@H]1C(=O)N1CCC[C@H]1C(=O)N1CCC[C@H]1C(=O)N[C@@H](CC(C)C)C(=O)NCC(=O)N[C@@H](CCCCN)C(=O)N[C@@H](CCCCN)C(=O)O [Peptide P6] (H-SSSPLHLQPPPLGKK-OH; N-terminus and C-terminus assumed)

Reference: paper PMC10814857, “Functional Classification and Interaction Selectivity Landscape of the Human SH3 Domain Superfamily” (Cells, 2024)
